Literature values as cited in patent US20250295106A1, “HERBICIDAL COMPOSITION” (NOURYON CHEMICALS INTERNATIONAL B.V., priority 2024, published 2025).

Details: acid form, at 25° C.

For O=C(O)CNCP(=O)(O)O [glyphosate, N-phosphonomethylglycine], the solubility in water is listed as 1.16 % by weight.
